Results published in EP2873675A1, “Peptide-based peroxidase inhibitors and methods of using same” (The Medical College of Wisconsin, Inc., priority 2013, dated 2015).
“Also recorded” adds a separate entry of the source. Residues, ends and D or L forms follow the SMILES beside them.

What was measured:
[1] = Solubility in water / physiological buffers; type: physicochemical; conditions: can be added directly to physiological buffers
SCD mice = experiment: WBC counts in SCD mice (cytometry); type: in vivo; conditions: SCD mice treated for three weeks
Procedure: MPO improves vascular function in SCD mice. To determine whether inhibiting MPO improves vascular function and/or reduces inflammation in vivo, SCD mice were treated with KYC for three weeks. […] Such physiological and structural changes are consistent with immunofluorescent studies showing that chlorotyrosine and MPO levels are reduced in the aortas of KYC-treated SCD mice compared with non-treated SCD mice (Fig. 13). High WBC counts are indicative of on-going inflammation in SCD and predictive of future vaso-occlusive events. Accordingly, WBC levels were quantified in the SCD mice using standard cytometry assays.

MPO [2] = experiment: MPO-mediated LDL malondialdehyde (MDA) formation; type: biochemical; conditions: increasing concentrations; LDL 0.5 mg/mL, MPO 50 nM, H2O2 50 µM, NO2 50 µM
Procedure: MPO-mediated LDL Malondialdehyde (MDA) Formation: Reaction mixtures contained LDL (0.5 mg/mL), NaNO2 (50 µM), H2O2 (50 µM), MPO (50 nM) and increasing concentrations of KYC in a phosphate buffer (100 mM, pH 7.4) containing DTPA (100 µM). After incubation at 37 °C for 4 h, the reactions were stopped by addition of catalase (2,000 units/mL). The formation of MDA was determined according to a published procedure. Briefly, incubation mixtures (containing 25 mM BHT) were adjusted to pH 1.5 and incubated at 60 °C for 80 min to hydrolyze the Schiff Bases formed from MDA and protein. The samples were mixed with 3-fold volume of N-methyl-2-phenylindole (13.4 mM in acetonitrile/methanol (3:1)). After centrifugation (13000 g, 5 min) 330 µL of the supernatants were mixed with 57.5 µL of concentrated HCl and incubated at 45 °C for another 60 min. Finally, after centrifugation (13000 g, 5 min), total MDA in the samples was determined from the absorbance at 586 nm using a UV-Vis spectrophotometer (Agilent Model 8453).

MPO [3] = experiment: MPO-mediated LDL Trp oxidation (Trp intrinsic fluorescence); type: biochemical; conditions: MPO/H2O2/NO2- system, 30 min, room temperature
Procedure: MPO-mediated LDL Trp Oxidation: Reaction mixtures containing LDL (0.15 mg/mL), NaNO2 (100 µM), H2O2 (100 µM), MPO (20 nM) and increasing concentrations of KYC in a phosphate buffer (100 mM, pH 7.4) containing DTPA (100 µM) were incubated at room temperature for 30 min. Reactions were stopped by addition of catalase (2,000 units/mL) and the oxidation of Trp in LDL was determined by measuring changes in the intrinsic fluorescence of Trp (Ex 294nm/Em 345 nm) using a LC-50 fluorometer (Perkin Elmer, Waltham MA).

MPO [4] = experiment: MPO-mediated LDL oxidation (conjugated diene formation, absorbance at 234 nm); type: biochemical; conditions: 25 µM; in the absence of nitrite
NADPH oxidase (NOX) = experiment: PMA-stimulated HL-60 cell superoxide formation (SOD-inhibitable cytochrome C reduction); type: cell-based, human; conditions: cytochrome C assay
Procedure: PMA-induced Superoxide Anion Formation. HL-60 cells were cultured in RPMI 1640 medium containing 10 % FCS (passage 20-50). HL-60 cells were harvested by centrifugation (1000 rpm, 10 min), washed 2X with phosphate buffer (10 mM, pH 7.4) with NaCl (138 mM), KCl (2.67 mM), CaCl2 (0.901 mM), MgCl2 (0.493 mM) and glucose (1mg/ml) to remove culture medium. The HL-60 cells (6 x10^6/0.5ml) were re-suspended in DPBS. After stimulation with PMA (10 µM), the HL-60 cells were incubated with cytochrome C (40 µM) with or without superoxide dismutase at 37°C for 30 min. The reaction was stopped by centrifugation. Cytochrome C reduction was measured at 550 nm on a UV-Vis spectrophotometer (Agilent, Model 8453).
PMA-stimulated HL-60 cell O2^•- Formation: HL-60 cells were harvested by centrifugation (1000 rpm, 10 min), washed twice with DPBS with glucose to remove culture medium. The HL-60 cells (1.2 x10^7/ml) were re-suspended in DPBS with glucose. After stimulation with PMA (10 µM), the HL-60 cells were incubated with cytochrome C (40 µM) with or without superoxide dismutase (500 units/mL) at 37 °C for 10 min and then the HL-60 cells were removed by centrifugation. Cytochrome C reduction in supernatants was measured at 550 nm using a UV-Vis spectrophotometer (Agilent, Model 8453).

MPO [5] = experiment: MPO-catalyzed HOCl production (taurine/TMB assay); type: biochemical
Procedure: MPO-mediated HOCl Production. MPO (20 nM) was incubated with H2O2 (50 µM), NaCl (150 mM), taurine (5 mM) and increasing concentrations of KYC in phosphate buffer (100 mM, pH 7.4) which also contained diethylene triamine pentaacetic acid (DTPA, 100 µM) to prevent non-specific, divalent metal cation oxidation for 30 min. Reactions were halted by addition of catalase. Chlorotaurine was quantified using the 3,3-,5,5-tetramethylbenzidine (TMB) assay. Briefly, 400 µL of reaction solution was mixed with 100 µL of 2 mM TMB, 100 µM NaI containing 10% dimethylformamide (DMF) in 400 mM acetate buffer (pH 5.4). After 5 min, absorbance (650 nm) was recorded on a UV/Vis spectrophotometer (Agilent Model 8453).
MPO-catalyzed HOCl Production: MPO (20 nM) was incubated with H2O2 (50 µM), NaCl (150 mM), taurine (5 mM) and increasing concentrations of KYC in a phosphate buffer (100 mM, pH 7.4) containing diethylene triamine pentaacetic acid (DTPA, 100 µM) to prevent non-specific, divalent metal cation oxidation for 30 min. Reactions were halted by addition of catalase (2,000 units/mL). Chlorotaurine was quantified using the TMB assay (66). Briefly, 400 µL of reaction solution was mixed with 100 µL of 2 mM TMB, 100 µM NaI containing 10% dimethylformamide (DMF) in 400 mM acetate buffer (pH 5.4). After 5 min, absorbance (650 nm) was recorded on a UV/Vis spectrophotometer (Agilent Model 8453).

BAEC = experiment: MPO-mediated BAEC injury (cell morphology); type: cell-based, Bovine; conditions: 20 min

In the case of CC(=O)N[C@@H](CCCCN)C(=O)N[C@@H](Cc1ccc(O)cc1)C(=O)N[C@@H](CS)C(N)=O [KYC, N-acetyl Lysyltyrosylcysteine amide] (Ac-Lys-Tyr-Cys-NH2), the solubility in water [1] is reported as “highly water soluble”, the WBC counts (SCD mice) is reported as “more than half; also recorded: reduced by half” and the “MPO-mediated MDA formation in LDL” value (MPO [2]) is reported as “dose-dependently inhibited”. For the same compound, the “MPO-dependent oxidation of Trp residues in LDL” value (MPO [3]) was “protected the Trp residues in LDL against MPO-dependent oxidation”, the “MPO/H2O2-mediated LDL oxidation” value (MPO [4]) was “inhibited LDL oxidation; also recorded: did not increase LDL oxidation” and the “O2•- production in PMA-stimulated HL-60 cells” value (NADPH oxidase (NOX)) was “neither KYC nor KYC disulfide have any significant effect; also recorded: Neither KYC nor KYC disulfide had any significant effect”. The “MPO-catalyzed HOCl production, comparison at equimolar concentration” value (MPO [5]; 12.5 µM) was “comparable to that of tryptophan; also recorded: significantly more effective at inhibiting MPO-dependent HOCl production than GSH”, the “inhibition of HOCl production” value (MPO [5]; 12.5 µM) was roughly 75% and the “MPO-dependent HOCl production” value (MPO [5]; 25 µM) was “completely inhibits; also recorded: completely ablated”. The IC50 (MPO [5]; MPO 20 nM, H2O2 50 µM, NaCl 150 mM, 30 min) was roughly 7 µM, the “protection of BAEC from MPO-induced injury (morphology)” value (BAEC; 25 µM, higher MPO (5 µg/ml) or H2O2 (100 µM), data not shown) was “protected BAEC from even higher concentrations of MPO” and the “protection of BAEC from MPO-induced injury (morphology)” value (BAEC; 50 µM, MPO 2.5 µg/ml, H2O2 50 µM) was “almost the same morphology as cultures that were not exposed to MPO”.
